Experimental data: US8912226B2 (priority 2012, dated 2014)
Where “and” joins values, the source holds several entries; their conditions need not be identical. Equal values may be shown once.

Tested on: rat
Assay: animal or person
Assay type: in vivo
Conditions: for ED50: ip

| SMILES | ED50 (Rattus norvegicus, 2 h) | timepoint of peak effect (rat, in vivo) | ED50 (rat, in vivo) |
| --- | --- | --- | --- |
| O=C(O)Cc1ccccc1Nc1c(Cl)cccc1Cl [Diclofenac sodium] | 127 mg/kg | 120 min p. appl. | 127,036 μg/kg and 127,036 (119,433- μg/kg |
| COc1ccc2c(c1)c(CC(=O)O)c(C)n2C(=O)c1ccc(Cl)cc1 [Indometacin] | 161 mg/kg | 120 min p. appl. | 161,327 μg/kg and 161,327 (149,231- μg/kg |
